# Data as given in patent publication US11160758B2, “Modified release formulations and uses thereof” (Sunovion Pharmaceuticals Inc., priority 2019, dated 2021).
# Experiments:
# [1] = tested on: healthy volunteers; assay: REM suppression polysomnography (PSG) study of (R)-amisulpride (Example 5); type: in vivo, human
# Procedure: REM suppression was the biomarker used to determine clinically-significant levels of 5-HT7 antagonism and its pharmacodynamics. REM suppression was assessed by total time in minutes spent in REM sleep and by the latency in minutes to REM sleep. […] REM suppression in human volunteers is an established translational biomarker useful to identify doses for antidepressant effects in patients.
# The primary endpoint was REM sleep suppression as determined at post dose time points in the measures of latency to REM sleep, REM sleep time in minutes, and percent decrease in REM sleep time relative to total sleep time.
# The REM suppression time value is the Least Square Mean differences from placebo, and the error bars represent the 90% confidence interval (CI).
# The results presented in Tables 21-23 were determined from an analysis of the date based on a linear mixed model with terms for treatment, period, and treatment sequence as fixed effects, respective baseline PSG value as a continuous covariate, and treatment-by-baseline PSG interaction, and subject nested within sequence as a random effect, the Kenward and Roger correction for the degrees of freedom and an unstructured covariance structure to model the intrasubject correlation. The abbreviations used in Tables 21-23 are as follows: PSG=polysomnography; CI=confidence interval; LS=least-squares; REM=rapid eye movement; SE=standard error.
# [2] = tested on: freely moving rats; assay: Sleep study of (R)-amisulpride, EEG/EMG (Example 3A); type: in vivo, rat; settings: 10, 30, 100 mg/kg, p.o.
# Procedure: Rapid eye movement (REM) sleep time, non-rapid eye movement (NREM) sleep time, WAKE time were measured using electroencephalogram (EEG) and electromyogram (EMG) recordings. […] EEG and EMG recordings were made for 6 hr starting at the beginning of the light phase. Vehicle (0.05 N HCl/0.5% Methyl Cellulose 400 solution) or dosing suspensions were orally administered 10 min before the beginning of light phase. The volume of administration was 5 mL/kg. The order of drug treatment varied pseudo-randomly and at least 1 week was allowed between the experiments for individual animals.
# A radio transmitter (TL11M2-F40-EET; Data Science International, New Brighton, Minn., USA) was implanted subcutaneously in the back of anesthetized animals, and a pair of electrode wires was stereotaxically implanted into the skull in the following locations: one in the frontoparietal (2 mm anterior to the bregma and 2 mm left to the midline), and the other in parietal (5 mm posterior to the bregma and 2 mm right to the midline) areas. The EEG electrodes were fixed using dental cement. Electromyograms (EMG) were recorded from the dorsal neck muscle. […] EEG/EMG were recorded in the home cages in a soundproof box using Dataquest A.R.T. software (Data Science International, New Brighton, Minn., USA) at a sampling rate of 500 Hz. […]
# [3] = clinical; settings: human, in vivo
# [4] = tested on: healthy volunteers; assay: concentration-QTc analysis, linear mixed-effects model (Example 7A); type: in vivo, human
# Procedure: The effect of amisulpride (enantiomers and total) on change-from-baseline QTcF and heart rate (ΔQTcF and ΔHR) was evaluated based on a linear mixed-effects model at each nominal post-dosing time point (“by-time point analysis”) using the intersection union test. In the concentration-QTc analysis (primary analysis), the full model included ΔQTcF as the dependent variable, time-matched plasma concentrations of R- and S- and total amisulpride enantiomers as the explanatory variates, centered baseline QTcF (i.e., baseline QTcF for individual subject subtracting the population mean baseline QTcF for all subjects) as an additional covariate, a fixed intercept, and random effect for both intercept and slopes per subject, when applicable. A pre-specified model selection procedure was then performed to choose a primary model from among the full model and reduced models from possible first order combinations (without quadratic and interaction terms) among these 3 analytes of concentrations of R- and S-enantiomers and total amisulpride (including models with only 1 analyte and with any 2 analytes).
# The observations and a linear mixed-effects model parameters derived therefrom was used to estimate the ΔQTcF at the observed Cmax of the formulation Lots studied.
# [5] = Coukell et al 1996; cited from earlier work
# [6] = human, in vivo, po
# [7] = linear mixed-effects model, total amisulpride concentration vs ΔQTcF
smiles,measurement,setting,value
"CCN1CCC[C@@H]1CNC(=O)c1cc(S(=O)(=O)CC)c(N)cc1OC [(R)-amisulpride, R-4-Amino-N-[(1-ethyl-2-pyrrolidinyl)methyl]-5-(ethylsulfonyl)-2-methoxybenzamide]",tolerability,[1]; healthy subjects,well tolerated
same,vital signs and ECGs,[1]; in vivo,normal
same,NREM sleep time and WAKE time,[2],no observed effect
same,REM sleep duration,[2]; light phase,reduced REM sleep duration in dose-dependent manner
"CCN1CCCC1CNC(=O)c1cc(S(=O)(=O)CC)c(N)cc1OC (stereo not drawn) [amisulpride, 4-amino-N-[(1-ethylpyrrolidin-2-yl)methyl]-5-ethylsulfonyl-2-methoxy-benzamide]",concentration at 0.5 hr,[3],346 ng/mL
same,concentration at 1 hr,[3],294 ng/mL
same,concentration at 2 hr,[3],432 ng/mL
same,concentration at 3 hr,[3],516 ng/mL
same,concentration at 4 hr,[3],272 ng/mL
same,concentration at 6 hr,[3],163 ng/mL
same,concentration at 8 hr,[3],96.8 ng/mL
same,concentration at 10 hr,[3],69.9 ng/mL
same,concentration at 12 hr,[3],55.6 ng/mL
same,concentration at 24 hr,[3],21.2 ng/mL
same,concentration at 36 hr,[3],9.84 ng/mL
same,concentration at 48 hr,[3],7.02 ng/mL
same,concentration at 72 hr,[3],1.48 ng/mL
same,estimated population slope of the concentration-QTc relationship,[4]; 90% CI: 0.0257 to 0.0369,0.031 ms per ng/mL
same,intercept of the concentration-QTc relationship,[4]; 90% CI: −4.88 to 0.27,-2.3 ms
same,Centered Baseline Effect of concentration-QTc relationship model,[4]; [7],-0.23 ms
same,Intercept of concentration-QTc relationship model,[4]; [7],-2.31 ms
same,Total Amisulpride Slope of concentration-QTc relationship model,[4]; [7],0.031 ms per ng/mL
same,terminal plasma half-life,[5],approximately 12 hours
same,washout observed for blood plasma concentration,[6],approximately 24 hour
